Here are results for three molecules from US20110100079A1, “METHOD FOR IMPARTING STRESS TOLERANCE TO PLANT” (priority 2007, published 2011).

Holding throughout (type): in vivo
The subject of assay [1] is “Momotaro” tomato. Description: Example 6 salt stress test (tomato), soil culture. The settings on record: 23° C., 100 ppm, 2 weeks; for Fresh weight, relative value (untreated plot = 100), Test 1 / Fresh weight, relative value (untreated plot = 100), Test 4 / Fresh weight, relative value (untreated plot = 100), Test 2 / Fresh weight, relative value (untreated plot = 100), Test 3: soil culture; for Fresh weight, relative value (untreated plot = 100), Test 1: EC 1.3 mS/cm; for Fresh weight, relative value (untreated plot = 100), Test 1 / Fresh weight, relative value (untreated plot = 100), Test 2 / Fresh weight, relative value (untreated plot = 100), Test 3 / Fresh weight, relative value (untreated plot = 100), Comparison 1: pF 1.7, two-leaf stage; for Fresh weight, relative value (untreated plot = 100), Test 4 / Fresh weight, relative value (untreated plot = 100), Test 2: EC 2 mS/cm; for Fresh weight, relative value (untreated plot = 100), Test 4: pF 1.7, five-leaf stage; for Fresh weight, relative value (untreated plot = 100), Test 3: EC 3 mS/cm; for Fresh weight, relative value (untreated plot = 100), Comparison 1: stress-free: soil culture, EC 1 mS/cm. On the procedure:
(1) A. soil culture (a) Comparative example conditions (stress-free optimum growth conditions) Cultivation temperature: 23° C., EC: 1.0 mS/cm (cultivation with Kureha gardening soil), pF value: 1.7 (capillaries in a saturated state) (b) Example conditions (salt stress conditions) Cultivation temperature: 23° C., EC: 1.3, 2.0, 3.0 mS/cm (cultivation with Kureha gardening soil), pF value: 1.7 (capillaries in a saturated state)
(§1) (a) Comparative example conditions (stress-free optimum growth conditions) Cultivation temperature: 23° C., EC: 1.3 mS/cm (Otsuka ½A formulation) (b) Example conditions (salt stress conditions) Cultivation temperature: 23° C., EC: 2.7, 3.9, 4.8 mS/cm (cultivation with Kureha gardening soil) (2) Illuminance: 5000 Lux (fluorescent light), light/dark cycle: 16 hours/8 hours (3) Employed soil: Kureha gardening soil manufactured by Kureha Corporation (fertilizer components: N:P:K=0.4:1.9:0.6 g/kg soil) (4) Employed solution culture medium: Otsuka ½A formulation: a mixed solution of Otsuka House No. 1 (N:P:K=10:8:27) 7.5 g/10 L and Otsuka House No. 2 (N:P:K:Ca=10:0:0:23) 5 g/10 L, total nitrogen: 130 ppm, phosphoric acid: 60 ppm, potassium: 203 ppm) (5) Cultivation period: 2 weeks (6) Plant preparation: A 50-cell tray was filled with Kureha gardening soil manufactured by Kureha Corporation (fertilizer components: N:P:K=0.4:1.9:0.6 g/kg soil), and seeds of a “Momotaro” tomato or tubers of a “Danshaku” potato were sowed, thinly covered with Kureha gardening soil, and sufficiently watered to allow the seeds or the tubers to sprout. When the leaves in the 2-leaf stage or the 5-leaf stage fully unfolded, the soil on the tomato roots or the potato roots was carefully washed away with running water, and a test was performed. (7) Test chemicals: POE (20) sorbitan monolauric acid ester: Reodol TW-L120 (Kao Corporation) POE (20) sorbitan monopalmitic acid ester: Reodol TW-P120 (Kao Corporation) POE (20) sorbitan monostearic acid ester: Reodol TW-S120 (Kao Corporation) POE (20) sorbitan monooleic acid ester: Reodol TW-O120 (Kao Corporation) Sorbitan monooleic acid ester: Emasol 0-10(F) (Kao Corporation) POE (6) sorbitan monooleic acid ester: Reodol TW-O106 (Kao Corporation) Alkyl (number of carbon atoms: 10) polyglucoside: AG-10LK (Kao Corporation) Alkyl (number of carbon atoms: 12 to 14) polyglucoside: AG-124 (Kao Corporation) Sucrose fatty acid ester (number of carbon atoms: C18, HLB: 5): S-570 (Mitsubishi-Kagaku Foods Corporation) Sucrose fatty acid ester (number of carbon atoms: C18, HLB: 9): S-970 (Mitsubishi-Kagaku Foods Corporation) Sucrose fatty acid ester (number of carbon atoms: C18, HLB: 11): S-1170 (Mitsubishi-Kagaku Foods Corporation) Sucrose fatty acid ester (number of carbon atoms: C18, HLB: 15): 5-1570 (Mitsubishi-Kagaku Foods Corporation) Sucrose fatty acid ester (number of carbon atoms: C16, HLB: 15): P-1570 (Mitsubishi-Kagaku Foods Corporation) Sucrose fatty acid ester (number of carbon atoms: C18:1, HLB: 15): O-1570 (Mitsubishi-Kagaku Foods Corporation) (8) Amount of treatment solution applied: 10 ml/specimen for leaf spraying, 250 ml/specimen for hydroponic culture (treatment of underground portion) (9) 50 ml/specimen for soil culture (treatment of underground portion)
The environmental conditions in a climatic chamber were controlled so as to have a temperature of 23° C., an illuminance by a fluorescent light of 5000 Lux, and a daily light-dark cycle of a 16-hour light period and an 8-hour dark period. Tomatoes as prepared above were transplanted in size-3 (9 cm) pots. During the test period, the EC value was controlled by adding a suitable amount of a 10% NaCl solution once a day so as to attain a specific salt stress value. A treatment solution containing a compound of Table 1 in a specific concentration (the remainder was water) was prepared and sprayed onto the leaves or applied to the underground portions. […]

In a further assay the test system is potato. Description: Example 9 drying stress test (potato), soil culture. The settings on record: 23° C., 100 ppm, 2 weeks; for Fresh weight, relative value (untreated plot = 100), Test 1 / Fresh weight, relative value (untreated plot = 100), Test 4 / Fresh weight, relative value (untreated plot = 100), Test 2 / Fresh weight, relative value (untreated plot = 100), Test 3: potato soil culture; for Fresh weight, relative value (untreated plot = 100), Test 1: EC 1, pF 2.8, two-leaf stage; for Fresh weight, relative value (untreated plot = 100), Test 4: EC 1, pF 3.5, five-leaf stage; for Fresh weight, relative value (untreated plot = 100), Test 2: EC 1, pF 3.5, two-leaf stage; for Fresh weight, relative value (untreated plot = 100), Test 3: EC 1, pF 4.1, two-leaf stage; for Fresh weight, relative value (untreated plot = 100), Comparison 1: stress-free: potato soil culture, EC 1, pF 1.7, two-leaf stage. How it is done:
The environmental conditions in a climatic chamber were controlled so as to have a temperature of 23° C., an illuminance by a fluorescent light of 5000 Lux, and a daily light-dark cycle of a 16-hour light period and an 8-hour dark period. Potatoes as prepared above were transplanted in size-5 (15 cm) pots. During the test period, the pF value was controlled by adding a suitable amount of tap water once a day so as to attain a specific drying stress value. A treatment solution containing a compound of Table 5 in a specific concentration (the remainder was water) was prepared and sprayed onto the leaves or applied to the underground portions. […] A comparative example was constructed to reflect the drying stress-free optimum cultivation conditions to investigate the plant energizing ability. […] Moreover, when the products of the present invention and the comparative products were compared, the stress tolerance imparting ability of the products of the present invention was higher in respective drying stress conditions.

Assay [2] relates to “Momotaro” tomato. Description: Example 6 salt stress test (tomato), hydroponic culture. The settings on record: 23° C., 100 ppm, 2 weeks; for Fresh weight, relative value (untreated plot = 100), Test 5 / Fresh weight, relative value (untreated plot = 100), Test 8 / Fresh weight, relative value (untreated plot = 100), Test 6 / Fresh weight, relative value (untreated plot = 100), Test 7: hydroponic culture; for Fresh weight, relative value (untreated plot = 100), Test 5: EC 2.7 mS/cm; for Fresh weight, relative value (untreated plot = 100), Test 5 / Fresh weight, relative value (untreated plot = 100), Test 6 / Fresh weight, relative value (untreated plot = 100), Test 7 / Fresh weight, relative value (untreated plot = 100), Comparison 2: two-leaf stage; for Fresh weight, relative value (untreated plot = 100), Test 8 / Fresh weight, relative value (untreated plot = 100), Test 6: EC 3.9 mS/cm; for Fresh weight, relative value (untreated plot = 100), Test 8: five-leaf stage; for Fresh weight, relative value (untreated plot = 100), Test 7: EC 4.8 mS/cm; for Fresh weight, relative value (untreated plot = 100), Comparison 2: stress-free: hydroponic culture, EC 1.3 mS/cm. How it is done: as §1
The environmental conditions in a climatic chamber were controlled so as to have a temperature of 23° C., an illuminance by a fluorescent light of 5000 Lux, and a daily light-dark cycle of a 16-hour light period and an 8-hour dark period. Tomatoes as prepared above were planted in 250 ml polyethylene bottles each filled with a solution culture medium having a different EC value. Different EC values were achieved by taking a ½ Otsuka A formulation having an EC value of 1.3 as a standard and suitably increasing the fertilizer concentration through proportional counting. A treatment solution containing a compound of Table 1 in a specific concentration (the remainder was water) was prepared and sprayed onto the leaves or applied to the underground portion. In each test plot, 10 specimens were prepared for replication, and the average of the fresh weight of each specimen 2 weeks after the beginning of the test was calculated and expressed as a relative value where “100” indicates a result identical to that of the untreated plot of a given EC condition. […]

“POE (20) sorbitan monolauric acid ester [Product of present invention 12]”: in the assay with “Momotaro” tomato [1] (leaf), the “Fresh weight, relative value (untreated plot = 100), Test 1” value (from here on “Fresh weight, relative value … Test 1”) is recorded as 131; the “Fresh weight, relative value (untreated plot = 100), Test 4” value (from here on “Fresh weight, relative value … Test 4”) is 146; the “Fresh weight, relative value (untreated plot = 100), Test 2” value (from here on “Fresh weight, relative value … Test 2”) is recorded as 155; the “Fresh weight, relative value (untreated plot = 100), Test 3” value (“Fresh weight, relative value … Test 3” for short) came out at 133. Also, the “Fresh weight, relative value (untreated plot = 100), Comparison 1” value (from here on “Fresh weight, relative value … Comparison 1”) with “Momotaro” tomato [1] (leaf) is reported as 101. Further, in the assay on potato (leaf), the “Fresh weight, relative value … Test 1” value is on record as 128; the “Fresh weight, relative value … Test 4” value came to 145; the “Fresh weight, relative value … Test 2” value is 143; the “Fresh weight, relative value … Test 3” value is 129. The “Fresh weight, relative value … Comparison 1” value in the assay on potato (leaf) was 101. In the assay on “Momotaro” tomato [2] (leaf), the “Fresh weight, relative value (untreated plot = 100), Test 5” value (shortened to “Fresh weight, relative value … Test 5”) turned out to be 136; the “Fresh weight, relative value (untreated plot = 100), Test 8” value (“Fresh weight, relative value … Test 8” below) amounted to 147; the “Fresh weight, relative value (untreated plot = 100), Test 6” value (from here on “Fresh weight, relative value … Test 6”) is recorded as 160; the “Fresh weight, relative value (untreated plot = 100), Test 7” value (shortened to “Fresh weight, relative value … Test 7”) was 135. In the assay with “Momotaro” tomato [2] (leaf), the “Fresh weight, relative value (untreated plot = 100), Comparison 2” value (“Fresh weight, relative value … Comparison 2” below) was 101.

Regarding `O=C(O)[C@@H]1CCCN1` [Comparative product 2, Proline, reference compound], in the assay with “Momotaro” tomato [1] (underground portion), the “Fresh weight, relative value … Test 1” value is given as 103; the “Fresh weight, relative value … Test 4” value stood at 100; the “Fresh weight, relative value … Test 3” value was 100. Further, in the assay on potato (leaf), the “Fresh weight, relative value … Test 1” value came to 102; the “Fresh weight, relative value … Test 4” value is recorded as 101; the “Fresh weight, relative value … Test 2” value worked out at 102; the “Fresh weight, relative value … Test 3” value turned out to be 101. In addition, the “Fresh weight, relative value … Comparison 1” value in the assay with potato (leaf) came to 101. Besides, in the assay on potato (underground portion), the “Fresh weight, relative value … Test 1” value amounted to 102; the “Fresh weight, relative value … Test 4” value came to 100; the “Fresh weight, relative value … Test 2” value was determined as 102; the “Fresh weight, relative value … Test 3” value came to 101. For the same molecule, the “Fresh weight, relative value … Comparison 1” value with potato (underground portion) is reported as 102. In the assay with “Momotaro” tomato [2] (leaf), the “Fresh weight, relative value … Test 5” value was 102; the “Fresh weight, relative value … Test 8” value was determined as 101; the “Fresh weight, relative value … Test 6” value is listed as 102; the “Fresh weight, relative value … Test 7” value was found to be 102. Besides, the “Fresh weight, relative value … Comparison 2” value in the assay with “Momotaro” tomato [2] (leaf) was determined as 102. Moreover, in the assay with “Momotaro” tomato [2] (underground portion), the “Fresh weight, relative value … Test 5” value is 103; the “Fresh weight, relative value … Test 8” value came out at 100; the “Fresh weight, relative value … Test 6” value is reported as 103; the “Fresh weight, relative value … Test 7” value turned out to be 102. For the same molecule, in the assay on “Momotaro” tomato [2] (underground portion), the “Fresh weight, relative value … Comparison 2” value came out at 103.

Regarding `C[N+](C)(C)CC(=O)[O-]` [Comparative product 3, Glycine betaine, reference compound], in the assay on “Momotaro” tomato [1] (leaf), the “Fresh weight, relative value … Test 1” value is recorded as 103; the “Fresh weight, relative value … Test 4” value is reported as 101; the “Fresh weight, relative value … Test 2” value is listed as 103; the “Fresh weight, relative value … Test 3” value was determined as 103. Further, the “Fresh weight, relative value … Comparison 1” value with “Momotaro” tomato [1] (leaf) is given as 102. For the same molecule, in the assay on potato (leaf), the “Fresh weight, relative value … Test 1” value is given as 102; the “Fresh weight, relative value … Test 4” value came to 101; the “Fresh weight, relative value … Test 2” value was 102; the “Fresh weight, relative value … Test 3” value amounted to 102. For the same molecule, in the assay with potato (leaf), the “Fresh weight, relative value … Comparison 1” value came to 102. For the same molecule, in the assay with “Momotaro” tomato [2] (leaf), the “Fresh weight, relative value … Test 5” value is on record as 103; the “Fresh weight, relative value … Test 8” value was 101; the “Fresh weight, relative value … Test 6” value was 103; the “Fresh weight, relative value … Test 7” value is given as 102. For the same molecule, in the assay on “Momotaro” tomato [2] (leaf), the “Fresh weight, relative value … Comparison 2” value amounted to 102.
